Target: T1, human TRPM8 (Homo sapiens, UniProt Q7Z2W7)
T1 construct: expressed in transfected cells; host or cells: Chinese hamster ovary (CHO) cells, T-REx tetracycline-inducible expression system (Invitrogen), co-transfected with pcDNA3.1 jellyfish aequorin
Test: Luminescence readout assay for measuring intracellular calcium (aequorin), hTRPM8 antagonism
Format: cell-based
Conditions: CHO cell line expressing human TRPM8 and aequorin; activation by icilin, L-menthol or cold buffer (table does not say which)
Protocol: Luminescence Readout Assay for Measuring Intracellular Calcium.
A stable Chinese hamster ovary cell line expressing human TRPM8 was generated using tetracycline inducible T-REx™ expression system from Invitrogen, Inc. (Carlsbad, Calif.). […] Twenty four hours before the assay, cells were seeded in 96-well plates and TRPM8 expression was induced with 0.5 μg/mL tetracycline. […] Potential antagonists were added 2.5 min prior to the addition of agonist, […], 100 µM L-menthol, or 1 min prior to the addition of cold buffer (<10° C.). The luminescence was measured by a CCD camera based FLASH-luminometer built by Amgen, Inc. A cooling device attached to FLASH luminometer was used for cold activation.

T1 sequence (Q7Z2W7 whole entry): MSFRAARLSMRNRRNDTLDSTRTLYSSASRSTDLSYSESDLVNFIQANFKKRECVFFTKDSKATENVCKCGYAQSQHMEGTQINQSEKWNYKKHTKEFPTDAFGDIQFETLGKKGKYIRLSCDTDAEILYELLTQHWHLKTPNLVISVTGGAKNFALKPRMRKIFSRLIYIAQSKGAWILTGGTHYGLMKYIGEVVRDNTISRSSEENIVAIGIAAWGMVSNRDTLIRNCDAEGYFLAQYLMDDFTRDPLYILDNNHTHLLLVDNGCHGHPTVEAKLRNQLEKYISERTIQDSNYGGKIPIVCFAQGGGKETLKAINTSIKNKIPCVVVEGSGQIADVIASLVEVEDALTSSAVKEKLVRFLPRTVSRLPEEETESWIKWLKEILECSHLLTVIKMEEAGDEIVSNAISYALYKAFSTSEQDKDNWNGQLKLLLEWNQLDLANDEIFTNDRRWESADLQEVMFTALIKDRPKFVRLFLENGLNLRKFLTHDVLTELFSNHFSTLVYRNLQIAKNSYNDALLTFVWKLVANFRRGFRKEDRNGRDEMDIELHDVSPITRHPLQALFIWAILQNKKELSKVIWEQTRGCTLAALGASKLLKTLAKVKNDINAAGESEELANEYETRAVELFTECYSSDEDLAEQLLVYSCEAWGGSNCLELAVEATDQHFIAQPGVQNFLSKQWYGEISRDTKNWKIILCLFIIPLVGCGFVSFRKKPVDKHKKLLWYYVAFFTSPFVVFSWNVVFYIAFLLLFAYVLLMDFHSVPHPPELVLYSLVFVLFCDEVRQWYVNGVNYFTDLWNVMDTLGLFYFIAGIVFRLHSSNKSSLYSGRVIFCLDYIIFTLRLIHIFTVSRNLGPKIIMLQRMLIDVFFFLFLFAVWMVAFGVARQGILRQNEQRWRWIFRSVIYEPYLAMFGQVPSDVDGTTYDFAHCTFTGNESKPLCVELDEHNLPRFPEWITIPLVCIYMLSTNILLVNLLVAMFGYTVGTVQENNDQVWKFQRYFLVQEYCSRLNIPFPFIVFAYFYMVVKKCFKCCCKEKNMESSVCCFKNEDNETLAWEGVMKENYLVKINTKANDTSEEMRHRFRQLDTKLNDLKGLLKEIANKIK

| SMILES | IC50 |
| --- | --- |
| Cc1cccc(CNC(=O)N[C@@H](c2ccc(C(F)(F)F)cc2)c2ncccc2C(F)(F)F)c1 [Example 147, (S)-1-(3-methylbenzyl)-3-((4-(trifluoro-methyl)-phenyl)(3-(trifluoro-methyl)-pyridin-2-yl)-methyl)urea (2,2,2-trifluoro-acetate)] | 3830 nM |
| COc1ccc([C@@H](C)NC(=O)N[C@@H](c2ccc(C(F)(F)F)cc2)c2ncccc2C(F)(F)F)cc1 [Example 130, 1-((R)-1-(4-methoxy-phenyl)ethyl)-3-((S)-(4-(trifluoro-methyl)-phenyl)(3-(trifluoro-methyl)-pyridin-2-yl)-methyl)urea (2,2,2-trifluoro-acetate)] | 3790 nM |
| CS(=O)(=O)c1cccc(NC(=O)N[C@@H](c2ccc(C(F)(F)F)cc2)c2ncccc2C(F)(F)F)c1 [Example 53, (S)-1-(3-(methylsulfonyl)phenyl)-3-((4-(trifluoro-methyl)-phenyl)(3-(trifluoro-methyl)-pyridin-2-yl)-methyl)urea] | 50 nM |
| O=C(Nc1cccnc1)N[C@@H](c1ccc(Cl)c(Cl)c1)c1ncccc1C(F)(F)F [Example 13, (S)-1-((3,4-dichlorophenyl) (3-(trifluoro-methyl)-pyridin-2-yl)-methyl)-3-(pyridin-3-yl)-urea] | 51 nM |
| CC(C)NC(=O)N[C@@H](c1ccc(C(F)(F)F)cc1)c1ncccc1C(F)(F)F [Example 32, (S)-1-isopropyl-3-((4-(trifluoro-methyl)-phenyl)(3-(trifluoro-methyl)-pyridin-2-yl)-methyl)urea] | 66 nM |
| COc1cccc2cc([C@H](NC(=O)Nc3cccnc3)c3ncccc3C(F)(F)F)cnc12 [Example 16, (S)-1-((8-methoxy-quinolin-3-yl)-(3-(trifluoro-methyl)-pyridin-2-yl)-methyl)-3-(pyridin-3-yl)-urea] | 2260 nM |
| O=C(Nc1ccc(F)cc1)NC(c1ccccc1)c1ccc(C(F)(F)F)cc1 (stereo not shown) [Example 171, 1-(4-Fluorophenyl)-3-(phenyl(4-(trifluoromethyl)phenyl)-methyl)urea] | 915 nM |
| CC(NC(=O)N[C@@H](c1ccc(C(F)(F)F)cc1)c1ncccc1C(F)(F)F)c1ccc(Br)cc1 (stereo partly drawn) [Example 101, 1-(1-(4-bromophenyl)-ethyl)-3-((S)-(4-(trifluoro-methyl)-phenyl)(3-(trifluoro-methyl)-pyridin-2-yl)-methyl)urea (2,2,2-trifluoro-acetate)] | 633 nM |
| COC(=O)c1cccc(NC(=O)N[C@@H](c2ccc(C(F)(F)F)cc2)c2ncccc2C(F)(F)F)c1C [Example 182, (S)-methyl 2-methyl-3-(3-((4-(trifluoro-methyl)phenyl) (3-(trifluoro-methyl)pyridin-2-yl)methyl)ureido)benzoate (2,2,2-trifluoro-acetate)] | 425 nM |
| Cc1ccc([N+](=O)[O-])c(NC(=O)N[C@@H](c2ccc(C(F)(F)F)cc2)c2ncccc2C(F)(F)F)c1 [Example 143, (S)-1-(5-methyl-2-nitrophenyl)-3-((4-(trifluoro-methyl)-phenyl)(3-(trifluoro-methyl)-pyridin-2-yl)-methyl)urea (2,2,2-trifluoro-acetate)] | 1300 nM |
| O=C(NC1CCOC1)N[C@@H](c1ccc(C(F)(F)F)cc1)c1ncccc1C(F)(F)F (stereo partly drawn) [Example 56, 1-(tetrahydrofuran-3-yl)-3-((S)-(4-(trifluoro-methyl)-phenyl)(3-(trifluoro-methyl)-pyridin-2-yl)-methyl)urea] | 676 nM |
| CCOC(=O)CCCNC(=O)N[C@@H](c1ccc(C(F)(F)F)cc1)c1ncccc1C(F)(F)F [Example 68, (S)-ethyl 4-(3-((4-(trifluoro-methyl)-phenyl)(3-(trifluoro-methyl)-pyridin-2-yl)-methyl)-ureido)-butanoate (2,2,2-trifluoro-acetate)] | 881 nM |
| O=C(Nc1cccnc1)NC(c1ccc(F)c(C(F)(F)F)c1)c1ncccc1C(F)(F)F (stereo not shown) [Example 21, 1-((4-fluoro-3-(trifluoro-methyl)-phenyl)(3-(trifluoro-methyl)-pyridin-2-yl)-methyl)-3-(pyridin-3-yl)-urea (2,2,2-trifluoro-acetate)] | 178 nM |
| C[C@@H](NC(=O)N[C@@H](c1ccc(C(F)(F)F)c(F)c1)c1ncccc1C(F)(F)F)C(F)(F)F [Example 152, 1-((S)-(3-fluoro-4-(trifluoro-methyl)-phenyl)(3-(trifluoro-methyl)-pyridin-2-yl)-methyl)-3-((R)-1,1,1-trifluoro-propan-2-yl)-urea (2,2,2-trifluoro-acetate)] | 70 nM |
| COC(=O)[C@@H](NC(=O)N[C@@H](c1ccc(C(F)(F)F)cc1)c1ncccc1C(F)(F)F)C(C)C [Example 96, (S)-methyl 3-(methyl-2-(3-((S)-(4-(trifluoro-methyl)-phenyl)(3-(trifluoro-methyl)-pyridin-2-yl)-methyl)-ureido)-butanoate (2,2,2-trifluoro-acetate)] | 884 nM |
| O=C(NC1CCCOC1)N[C@@H](c1ccc(C(F)(F)F)cc1)c1ncccc1C(F)(F)F (stereo partly drawn) [Example 54, 1-(tetrahydro-2H-pyran-3-yl)-3-((S)-(4-(trifluoro-methyl)-phenyl)(3-(trifluoro-methyl)-pyridin-2-yl)-methyl)urea] | 397 nM |
| O=C(Nc1cccnc1)N[C@@H](c1cccc(C(F)(F)F)c1)c1ncccc1C(F)(F)F [Example 9, (S)-1-((3-(trifluoro-methyl)-phenyl)(3-(trifluoro-methyl)-pyridin-2-yl)-methyl)-3-(pyridin-3-yl)-urea] | 175 nM |
| CCc1cccc(C(C)C)c1NC(=O)N[C@@H](c1ccc(C(F)(F)F)cc1)c1ncccc1C(F)(F)F [Example 91, (S)-1-(2-ethyl-6-isopropylphenyl)-3-((4-(trifluoro-methyl)-phenyl)(3-(trifluoro-methyl)-pyridin-2-yl)-methyl)urea (2,2,2-trifluoro-acetate)] | 670 nM |
| O=C(N[C@@H](c1ccc(C(F)(F)F)cc1)c1ncccc1C(F)(F)F)N[C@H]1CCc2ccccc21 [Example 129, 1-((S)-2,3-dihydro-1H-inden-1-yl)-3-((S)-(4-(trifluoro-methyl)-phenyl)(3-(trifluoro-methyl)-pyridin-2-yl)-methyl)urea (2,2,2-trifluoro-acetate)] | 2000 nM |
| CCOc1cccc(NC(=O)N[C@@H](c2ccc(C(F)(F)F)cc2)c2ncccc2C(F)(F)F)c1 [Example 126, (S)-1-(3-ethoxyphenyl)-3-((4-(trifluoro-methyl)-phenyl)(3-(trifluoro-methyl)-pyridin-2-yl)-methyl)urea (2,2,2-trifluoro-acetate)] | 3140 nM |
| O=C(NC1CCN(C(=O)OCc2ccccc2)CC1)N[C@@H](c1ccc(C(F)(F)F)cc1)c1ncccc1C(F)(F)F [Example 75, (S)-benzyl 4-(3-((4-(trifluoro-methyl)-phenyl)(3-(trifluoro-methyl)-pyridin-2-yl)-methyl)-ureido)-piperidine-1-carboxylate (2,2,2-trifluoro-acetate)] | 670 nM |
| N#Cc1cccc(NC(=O)N[C@@H](c2ccc(C(F)(F)F)cc2)c2ncccc2C(F)(F)F)c1 [Example 97, (S)-1-(3-cyanophenyl)-3-((4-(trifluoro-methyl)-phenyl)(3-(trifluoro-methyl)-pyridin-2-yl)-methyl)urea (2,2,2-trifluoro-acetate)] | 80 nM |

Source: US8778941B2, “TRPM8 antagonists and their use in treatments” (AMGEN Inc., priority 2011, dated 2014)
